This data set in a line: Stability test in human serum (15 h incubation, TLC control of supernatant). The following applies: controlled by TLC. Type of data set: in vitro ADME. The protocol: The compound of Example 4 (7.5-10.5 MBq) was prepared according to the previously described procedure. The resulting organic solution was evaporated until the final volume was about 50 μL. The complex was purified by silica gel chromatography using DCM/MeOH (99/1) as mobile phase. Activity was counted for each 500 μL aliquots and fractions of interest were concentrated under nitrogen flux. One ml of human serum was then added. The solution was gently stirred and divided into two aliquots incubated 15 h. respectively at 4° C. and 37° C. Then, serum proteins were precipitated by adding 750 μl of organic solvents mixture (ACN/DCM 100/1). Supernatant was separated by centrifugation at 4000 rpm and controlled by TLC.

Take “(^211At)(1-benzyl-3-(4-nitrophenyl)imidazolidene)(cyclooctadiene) rhodium(+I) [Example 4]”: the “degradation in human serum” value is, setting by setting: (incubated 15 h, result sentence prints 30° C. (method: 37° C.)) “No degradation”; (incubated 15 h at 4° C.) “No degradation”.

The values above are taken from patent publication US20150139901A1, “Radioactive Rhodium Complexes, Preparation Methods and Uses Thereof” (Institut National de la Sante et de la Recherche Medicale …, priority 2012, published 2015).
